# Assay results published in patent publication EP0004261A2, “Imidazole derivatives, method for their preparation and pharmaceutical compositions containing them” (F. HOFFMANN-LA ROCHE & CO. Aktiengesellschaft, priority 1978, dated 1979).
# Test system: Bastardhunde
# Test: Coronary-dilating / haemodynamic effect in anaesthetised open-chest dogs (electromagnetic flowmeter, aortic catheter, tachograph)
# Conditions: Dosis i.v. 1 mg/kg in Propylenglykol, n = 3
# [1] = maximal effect in percent of baseline
substance,measurement,setting,value
"2-Aethyl-N^5(oder N^4)-nitro-1-(2,3,5-tri-O-nitro-ß-D-ribofuranosyl)imidazol-4,5-dicarboxamid [mit R1 = CH3; R2 = H]","BP [min] (arterieller Blutdruck, Wirkungsdauer)",duration of effect,>60 min
same,"CABF [min] (Coronarfluss, Wirkungsdauer)",duration of effect,>60 min
same,"HR [min] (Herzfrequenz, Wirkungsdauer)",duration of effect,>60 min
same,"PL [min] (Druckgradient, Wirkungsdauer)",duration of effect,60 min
same,BP Δ % (arterieller Blutdruck),[1],-32%
same,CABF Δ % (Coronarfluss),[1],-19%
same,HR Δ % (Herzfrequenz),[1],-6%
same,"PL Δ % (Druckgradient, Aortadruck minus peripherem Coronardruck)",[1],-24%
